{"source": "paper PMC7315836", "about": "(Journal of medicinal chemistry, 2020)", "origin": "cited, not measured here", "key": {"MERS-CoV [1]": {"system": "MERS-CoV"}, "SARS-CoV [2]": {"system": "SARS-CoV"}, "[3]": {"system": "human aortic endothelial cells", "details": "100 μM"}, "cathepsin L": {"system": "cathepsin L", "details": "cathepsin L inhibition assay"}, "TMPRSS2": {"system": "TMPRSS2", "details": "by inhibiting TMPRSS2 activity"}, "SARS-CoV-2 [4]": {"system": "SARS-CoV-2"}, "SARS-CoV [5]": {"system": "SARS-CoV", "remark": "listed apart in the source"}, "HCoV-229E [6]": {"system": "HCoV-229E"}, "furin": {"system": "furin", "details": "HEK293 cells"}, "ACE2 [7]": {"system": "ACE2", "details": "read-out: IC50, ACE2 catalytic activity"}, "[8]": {"biological_target": "TACE (TNF-α converting enzyme)", "details": "read-out: IC50, ACE2 shedding"}, "[9]": {"details": "acute toxicity, mice"}, "MERS-CoV [10]": {"system": "MERS-CoV", "remark": "listed apart in the source"}, "MERS-CoV [11]": {"system": "MERS-CoV", "remark": "listed apart in the source"}, "ACE2 [12]": {"system": "ACE2"}, "ACE2 [13]": {"biological_target": "ACE2", "remark": "listed apart in the source"}, "HCoV-229E [14]": {"system": "HCoV-229E", "details": "HCoV-229E pseudovirus"}, "HCoV-OC43 [15]": {"system": "HCoV-OC43", "details": "5 mg/kg"}, "MERS-CoV [16]": {"system": "MERS-CoV", "details": "mouse, in vivo"}, "HCoV-NL63": {"system": "HCoV-NL63", "details": "HCoV-NL63 pseudovirus"}, "HCoV-OC43 [17]": {"system": "HCoV-OC43", "details": "HCoV-OC43 pseudovirus"}, "[18]": {"system": "SARS-CoV-2 S-mediated membrane fusion", "details": "fusion inhibitory assay"}, "SARS-CoV-2 [19]": {"system": "SARS-CoV-2", "details": "SARS-CoV-2 pseudovirus assay"}, "[20]": {"assay": "not given", "remark": "listed apart in the source"}, "SARS-CoV [21]": {"system": "SARS-CoV", "remark": "listed apart in the source"}}, "note": "Read-outs that look alike come from different tables or passages of the source.", "data": [{"compound": "COc1ccc(S(=O)(=O)O)cc1/N=N/c1c(S(=O)(=O)O)cc2cc(Nc3nc(Nc4ccccc4)nc(Nc4cc(C)c(/N=N/c5cc(S(=O)(=O)O)cc6cc(S(=O)(=O)O)cc(O)c56)cc4OC)n3)ccc2c1O", "note": "[ADS-J1 (15), ADS-J1]", "values": [{"measurement": "IC50", "setting": "coronaviruses", "result": "600 to 3890", "unit": "nM"}, {"measurement": "IC50", "setting": "MERS-CoV [1]", "result": 600, "unit": "nM"}, {"measurement": "IC50", "setting": "SARS-CoV [2]", "result": 3890, "unit": "nM"}]}, {"compound": "CC(C)(C)OC(=O)N[C@@H](Cc1c[nH]c2ccccc12)C(=O)NNC(=O)OCC(=O)N1CCCc2ccccc21", "note": "[CID23631927 (19), CID 23631927]", "values": [{"measurement": "toxicity", "setting": "[3]", "result": "did not show any sign of toxicity"}, {"measurement": "IC50", "setting": "cathepsin L", "result": 6.9, "unit": "nM"}]}, {"compound": "CCc1ccccc1NC(=O)CSC(=O)NNC(=O)[C@H](Cc1c[nH]c2ccccc12)NC(=O)OC(C)(C)C", "note": "[CID 16725315 (18), CID 16725315]", "values": [{"measurement": "IC50", "setting": "cathepsin L", "result": 56, "unit": "nM"}]}, {"compound": "CN(C)C(=O)COC(=O)Cc1ccc(OC(=O)c2ccc(NC(=N)N)cc2)cc1", "note": "[Camostat (22), Camostat]", "values": [{"measurement": "concentration preventing SARS-CoV infections", "setting": "TMPRSS2", "result": 10, "unit": "µM"}, {"measurement": "viral entry of SARS-CoV-2", "setting": "SARS-CoV-2 [4]", "result": "could prevent the viral entry of SARS-CoV-2"}]}, {"compound": "CCN(CC)CCCC(C)Nc1ccnc2cc(Cl)ccc12", "note": "(stereo not shown) [Chloroquine (4), Chloroquine]", "values": [{"measurement": "ED50", "setting": "SARS-CoV [5]", "result": 4400, "unit": "nM"}, {"measurement": "IC50", "setting": "coronaviruses", "result": "1130 to 4400", "unit": "nM"}, {"measurement": "toxicity that could be caused", "result": "ventricular arrhythmias,[72] QT prolongation,[72],[73] retinopathy,[74] and other cardiac-related toxicity"}]}, {"compound": "CCC[C@@H]([C@@H](CC(C)C)C(=O)N[C@@H](CCCCNC(=O)OCc1ccccc1)C(=O)Nc1nccs1)N(O)C=O", "note": "[GW280264X (6), GW280264X]", "values": [{"measurement": "concentration reducing shedding of ACE2", "setting": "ADAM17", "result": 1, "unit": "nM"}]}, {"compound": "CCN(CCO)CCCC(C)Nc1ccnc2cc(Cl)ccc12", "note": "(stereo not shown) [Hydroxychloroquine (5), Hydroxychloroquine]", "values": [{"measurement": "toxicity that could be caused", "result": "ventricular arrhythmias,[72] QT prolongation,[72],[73] retinopathy,[74] and other cardiac-related toxicity"}]}, {"compound": "O=C(NC(Cc1ccccc1)C(=O)N1CCC(O)(c2ccc(Br)cc2)CC1)c1ccccc1", "note": "(stereo not shown) [K22 (2), K22]", "values": [{"measurement": "IC50", "setting": "HCoV-229E [6]", "result": 700, "unit": "nM"}]}, {"compound": "CN1CCN(C(=O)N[C@@H](Cc2ccccc2)C(=O)N[C@H](/C=C/S(=O)(=O)c2ccccc2)CCc2ccccc2)CC1", "note": "[K11777 (21), K11777]", "values": [{"measurement": "IC50", "setting": "coronaviruses", "result": "0.68 to 46.1", "unit": "nM"}]}, {"compound": "CC(C)(C)[C@H](NC(=O)[C@H](CCONC(=N)N)NC(=O)Cc1ccc(CNC(=N)N)cc1)C(=O)N[C@@H](CCONC(=N)N)C(=O)NCc1ccc(C(=N)N)cc1", "note": "[MI-1851 (24), MI-1851]", "values": [{"measurement": "proteolytic processing of SARS-CoV-2 S protein by endogenous furin", "setting": "furin", "result": "could prevent proteolytic processing of the S protein"}]}, {"compound": "NCCNCCN1CC1", "note": "[NAAE (3), N-(2-amino-ethyl)-1 aziridine-ethanamine]", "values": [{"measurement": "IC50", "setting": "ACE2 [7]", "result": 57000, "unit": "nM"}]}, {"compound": "CC(C)CC(CC(=O)NO)C(=O)NC(Cc1ccc2ccccc2c1)C(=O)NC(C)C(N)=O", "note": "(stereo not shown) [TAPI-0 (7), TAPI-0]", "values": [{"measurement": "IC50", "setting": "[8]", "result": 100, "unit": "nM"}]}, {"compound": "O=C(OC[C@H]1O[C@@H](OC(=O)c2cc(O)c(O)c(O)c2)[C@H](OC(=O)c2cc(O)c(O)c(O)c2)[C@H](OC(=O)c2cc(O)c(O)c(O)c2)[C@@H]1O)c1cc(O)c(O)c(O)c1", "note": "[TGG (12), TGG]", "values": [{"measurement": "50% lethal dose", "setting": "[9]", "result": "~ 456 mg/kg"}]}, {"compound": "Cc1nc(Nc2ncc(C(=O)Nc3c(C)cccc3Cl)s2)cc(N2CCN(CCO)CC2)n1", "note": "[dasatinib (29), dasatinib]", "values": [{"measurement": "IC50", "setting": "MERS-CoV [10]", "result": 5400, "unit": "nM"}, {"measurement": "IC50", "setting": "coronaviruses", "result": "2100 to 5400", "unit": "nM"}]}, {"compound": "O=c1cc(-c2ccc(O)c(O)c2)oc2cc(O)cc(O)c12", "note": "[luteolin (13), luteolin]", "values": [{"measurement": "50% lethal dose", "setting": "[9]", "result": 232.2, "unit": "mg/kg"}]}, {"compound": "CN1CCN(CCOc2cc(OC3CCOCC3)c3c(Nc4c(Cl)ccc5c4OCO5)ncnc3c2)CC1", "note": "[saracatinib (30), saracatinib]", "values": [{"measurement": "IC50", "setting": "coronaviruses", "result": "2400 to 5100", "unit": "nM"}, {"measurement": "IC50", "setting": "MERS-CoV [11]", "result": 2900, "unit": "nM"}]}, {"compound": "DX600", "values": [{"measurement": "inhibition of ACE activity", "setting": "ACE", "result": "did not inhibit ACE activity"}, {"measurement": "stability", "setting": "ACE2 [12]", "result": "chemically stable and not hydrolyzable by ACE2"}, {"measurement": "Ki", "setting": "ACE2 [13]", "result": 2.8, "unit": "nM"}]}, {"compound": "EK1", "values": [{"measurement": "IC50", "setting": "HCoV-229E [14]", "result": 3350, "unit": "nM"}, {"measurement": "protection of mice from HCoV-OC43", "setting": "HCoV-OC43 [15]", "result": "nearly completely protected"}, {"measurement": "protection of mice against MERS-CoV infection", "setting": "MERS-CoV [16]", "result": "nearly completely protected"}, {"measurement": "IC50", "setting": "HCoV-NL63", "result": 6020, "unit": "nM"}, {"measurement": "IC50", "setting": "HCoV-OC43 [17]", "result": 1810, "unit": "nM"}, {"measurement": "IC50", "setting": "[18]", "result": 190, "unit": "nM"}, {"measurement": "IC50", "setting": "SARS-CoV-2 [19]", "result": 2380, "unit": "nM"}, {"measurement": "cytotoxic concentration (not cytotoxic up to)", "setting": "[20]", "result": "> 1", "unit": "mM"}]}, {"compound": "MDL28170 [MDL28170 (17)]", "values": [{"measurement": "EC50", "setting": "SARS-CoV [21]", "result": "~100", "unit": "nM"}]}, {"compound": "Teicoplanin", "values": [{"measurement": "IC50", "setting": "SARS-CoV-2 pseudoviruses", "result": 1660, "unit": "nM"}]}]}
